From patent US20210315893A1 (Galapagos NV, priority 2017, published 2021) come the findings set out here.

The target in assay [1] is T1, human GPCR sphingosine 1-phosphate receptor 2 (Homo sapiens, UniProt O95136).
T1 construct: host or cells: CHO
The assay is described as follows: S1PR2 antagonist Ca2+ flux assay. The class given is cell-based. The settings on record: antagonist mode, CHO-S1PR2 cells, S1P at EC80, Ca2+ fluorescence; read-out: S1P2 EC50 (nM), S1P2 antagonist EC50. An outline of the steps: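 Antagonist mode: 15 min after compound addition, S1P (EC80) stimulates Fluo8-loaded, 1 h-starved CHO-S1PR2 cells, Ca2+ read over 3 min; a prior 3-min read checks compound agonism. EC50 from peak/baseline fluorescence ratio, normalised versus vehicle and S1P EC50 (antagonist) or EC100 (agonist).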
In general terms: A change in cytosolic calcium serves as a functional read-out for many receptors and channels.

For assay [2], the target named is T2, human GPCR sphingosine 1-phosphate receptor 1 (Homo sapiens, UniProt P21453).
T2 construct: host or cells: CHO
T2 sequence (P21453 whole entry): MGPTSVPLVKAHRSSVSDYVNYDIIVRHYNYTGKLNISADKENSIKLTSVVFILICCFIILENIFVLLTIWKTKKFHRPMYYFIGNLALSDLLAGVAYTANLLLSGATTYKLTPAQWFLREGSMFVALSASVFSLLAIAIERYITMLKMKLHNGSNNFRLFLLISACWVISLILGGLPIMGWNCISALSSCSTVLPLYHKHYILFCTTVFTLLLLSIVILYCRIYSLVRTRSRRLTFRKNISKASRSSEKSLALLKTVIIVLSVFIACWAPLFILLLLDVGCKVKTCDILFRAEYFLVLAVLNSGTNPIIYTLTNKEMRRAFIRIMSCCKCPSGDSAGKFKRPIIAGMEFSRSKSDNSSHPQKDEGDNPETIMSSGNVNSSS
The assay is described as follows: S1PR1 selectivity Ca2+ flux assay (antagonist readout). The class given is cell-based. The settings on record: antagonist readout, CHO cells overexpressing human S1PR1 and Gq, S1P at EC80 (6 nM); read-out: S1P1 EC50 (nM), S1P1 antagonist EC50. In outline: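 Antagonist mode: S1P challenge follows 15 min compound preincubation at 37 °C. Cells are CHO stably expressing human S1PR1, serum-starved 1 h (0.1% FAF BSA), loaded with Fluo 8. Peak-over-baseline fluorescence ratio is normalized to positive/negative controls; IC50 from logistic curve fit.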

Assay [3] deals with T3, human GPCR sphingosine 1-phosphate receptor 5 (Homo sapiens, UniProt Q9H228).
T3 construct: host or cells: CHO
T3 sequence (Q9H228 whole entry): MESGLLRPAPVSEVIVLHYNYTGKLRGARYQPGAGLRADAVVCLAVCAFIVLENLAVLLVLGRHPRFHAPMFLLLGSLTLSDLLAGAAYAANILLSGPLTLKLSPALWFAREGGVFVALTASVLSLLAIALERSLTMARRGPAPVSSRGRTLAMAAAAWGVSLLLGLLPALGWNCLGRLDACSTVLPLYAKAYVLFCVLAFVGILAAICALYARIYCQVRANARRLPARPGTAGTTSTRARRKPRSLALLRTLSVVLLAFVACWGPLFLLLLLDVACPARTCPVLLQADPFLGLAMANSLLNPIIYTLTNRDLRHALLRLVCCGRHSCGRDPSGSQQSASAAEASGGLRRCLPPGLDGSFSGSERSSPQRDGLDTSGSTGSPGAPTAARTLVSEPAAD
The assay is described as follows: S1PR5 selectivity Ca2+ flux assay (antagonist readout). The class given is cell-based. The settings on record: CHO cells overexpressing human S1PR5 and Gq, agonist at EC80 (20 nM), read-out: S1P5 EC50 (nM), S1P5 antagonist EC50. An outline of the steps: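 Antagonist readout: after 15 min compound preincubation at 37° C, human S1PR5/Gq CHO cells loaded with Fluo 8 dye received an EC80 challenge of S1PR5-specific agonist, and fluorescence was recorded for 3 min. Maximal-over-background ratios, normalized as % inhibition, gave IC50 by logistic fit.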

Another assay deals with T4, S1PR2 (Homo sapiens, UniProt O95136).
T4 construct: expressed in transfected cells
T4 sequence (O95136 whole entry): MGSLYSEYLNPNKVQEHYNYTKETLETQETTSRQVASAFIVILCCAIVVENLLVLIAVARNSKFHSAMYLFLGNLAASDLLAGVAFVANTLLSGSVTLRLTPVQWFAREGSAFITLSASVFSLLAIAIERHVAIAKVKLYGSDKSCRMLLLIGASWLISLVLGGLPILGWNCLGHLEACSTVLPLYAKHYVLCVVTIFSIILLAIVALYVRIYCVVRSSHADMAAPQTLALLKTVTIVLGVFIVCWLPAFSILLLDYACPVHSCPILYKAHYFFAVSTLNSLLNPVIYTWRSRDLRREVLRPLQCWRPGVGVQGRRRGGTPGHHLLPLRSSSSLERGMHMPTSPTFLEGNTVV
The assay is described as follows: S1PR2 binding assay (competition with radioactively labeled S1P, SpA). The settings on record: membranes from stable cell line over expressing S1PR2, SpA beads; read-out: S1P2 EC50 (nM), S1PR2 binding EC50. In outline:
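Scintillation proximity read-out after 2 h room-temperature incubation of compound, [3H]S1P and S1PR2-overexpressing cell membranes on WGA-coated beads. Buffer: 20 mM Tris pH 7.5, 100 mM NaCl, 10 mM MgCl2, 1 mM Na3VO4, 0.4% fatty-acid-free BSA; plates counted immediately after centrifugation.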

Assay [4] has as its system HFL-1 cells. The assay can be described thus: IL-8 production assay (S1P induced IL-8). The class given is cell-based. To be noted: Homo sapiens, HFL1; S1P (1 μM) induced IL-8 in HFL-1 cells, starvation medium without HSA; read-out: IL8 EC50. An outline of the steps:
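HFL-1 fibroblasts in low-serum medium were pretreated 1 h with a 10-point 1/3 series of compound starting at 30 μM (0.3% DMSO).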

In assay [5] the test system is HFL-1 cells. The assay can be described thus: IL8 assay in the presence of Human Serum Albumin. The settings on record: HFL1, read-out: HSA IL8 EC50.

T1 sequence (O95136 whole entry): as above

On to `O=C(O)c1cn(Cc2nc3cc(OCC4CC4)c(C(F)(F)F)cc3[nH]2)c2ccccc2c1=O` [Compound 106, (1-[[5-(cyclopropyl-methoxy)-6-(trifluoromethyl)-1H-benzimidazol-2-yl]methyl]-4-oxoquinoline-3-carboxylic acid)], for which the EC50 in assay [1] came out at 3.45 nM; in assay [2], 830 nM; in assay [3], 19800 nM; on S1PR2, 14.1 nM; with HFL-1 cells [4], 0.00186 µM; in the assay on HFL-1 cells [5] it was 0.0989 µM.
`O=C(Cn1nc(Cc2nc3cc(OCC(F)F)c(F)cc3[nH]2)c2c(c1=O)CCCC2)N1CCOCC1` [Compound 179, 4-[[5-(2,2-difluoroethoxy)-6-fluoro-1H-benzimidazol-2-yl]methyl]-2-(2-morpholino-2-oxo-ethyl)-5,6,7,8-tetrahydrophthalazin-1-one]: the EC50 in assay [1] is 107 nM; in assay [2] it was at least 19800 nM; in assay [3], 19800 nM; at S1PR2, 207 nM; in the assay on HFL-1 cells [4], 0.352 µM; with HFL-1 cells [5], 0.353 µM.
In the case of `N#Cc1ccc2c(=O)n(CC(=O)N3CCOCC3)nc(Cc3nc4cc(OCC(F)F)c(Cl)cc4[nH]3)c2c1` [Compound 153], the EC50 is 28.5 nM in assay [1]; at least 19800 nM in assay [2]; 19800 nM in assay [3]; 246 nM on S1PR2; 0.0274 µM in the assay with HFL-1 cells [4]; 0.254 µM in the assay on HFL-1 cells [5].
For `CC(C(=O)O)n1nc(Cn2cc3cc(OCC4CC4)c(Cl)cc3n2)c2cc(C#N)ccc2c1=O` (stereo not drawn) [Compound 92, 2-[4-[[6-chloro-5-(cyclopropylmethoxy)indazol-2-yl]methyl]-6-cyano-1-oxo-phthalazin-2-yl]propanoic acid], the EC50 amounted to 8.99 nM in assay [1]; 13200 nM in assay [2]; 19800 nM in assay [3]; 32.1 nM at S1PR2; 0.00441 µM in the assay with HFL-1 cells [4]; 0.544 µM in the assay with HFL-1 cells [5].
Turning to `N#Cc1cc2[nH]c(Cc3nn(CC(=O)N4C[C@H](O)[C@@H](O)C4)c(=O)c4ccccc34)nc2cc1OCC(F)F` [Compound 211, 6-(2,2-difluoroethoxy)-2-[[3-[2-[(3S,4S)-3,4-dihydroxypyrrolidin-1-yl]-2-oxo-ethyl]-4-oxo-phthalazin-1-yl]methyl]-3H-benzimidazole-5-carbonitrile], the EC50 was 39.7 nM in assay [1]; at least 19800 nM in assay [2]; 19800 nM in assay [3]; 142 nM at S1PR2; 0.0465 µM with HFL-1 cells [4]; 0.159 µM in the assay with HFL-1 cells [5].
Take `CCOc1cc2[nH]c(Cc3nn(CC(=O)N4CCOCC4)c(=O)c4c3CCCC4)nc2cc1C#N` [Compound 167, 6-ethoxy-2-[[3-(2-morpholino-2-oxo-ethyl)-4-oxo-5,6,7,8-tetrahydrophthalazin-1-yl]methyl]-1H-benzimidazole-5-carbonitrile]: the EC50 in assay [1] was 13.2 nM; in assay [2] it was at least 19800 nM; in assay [3], 19800 nM; on S1PR2, 191 nM; with HFL-1 cells [4] it was 0.00661 µM; in the assay with HFL-1 cells [5] it was 0.0184 µM.
Turning to `CCOc1cc2nc(Cc3nn(CC(=O)O)c(=O)c4ccccc34)[nH]c2cc1C(F)(F)F` [Compound 127, 2-[4-[[5-ethoxy-6-(trifluoromethyl)-1H-benzimidazol-2-yl]methyl]-1-oxo-phthalazin-2-yl]acetic acid], the EC50 in assay [1] amounted to 8.27 nM; in assay [2], 3500 nM; in assay [3], 19800 nM; on S1PR2 it was 479 nM; with HFL-1 cells [4], 0.0136 µM; in the assay with HFL-1 cells [5], 0.0617 µM.
On to `N#Cc1ccc2c(=O)n(CC(=O)O)nc(Cc3nc4cc(Cl)c(OCC(F)F)cc4[nH]3)c2c1` [compound 23, 2-[4-[[5-chloro-6-(2,2-difluoro-ethoxy)-1H-benzimidazol-2-yl]methyl]-6-cyano-1-oxo-phthalazin-2-yl]acetic acid], for which the EC50 in assay [1] is 14.6 nM; in assay [2], at least 19800 nM; in assay [3] it was 19800 nM; on S1PR2 it was 306 nM; in the assay on HFL-1 cells [4], 0.0581 µM; with HFL-1 cells [5], 0.293 µM.
On to `O=C(O)c1cn(Cc2nc3cc(OCC4CC4)c(Cl)cc3[nH]2)c2ccccc2c1=O` [Compound 90, 1-[[6-chloro-5-(cyclopropylmethoxy)-1H-benzimidazol-2-yl]methyl]-4-oxo-quinoline-3-carboxylic acid], for which the EC50 in assay [1] was 5.29 nM; in assay [2] it was 4580 nM; in assay [3], 6610 nM; on S1PR2 it was 13.3 nM; in the assay on HFL-1 cells [4], 0.00111 µM; with HFL-1 cells [5], 0.0291 µM.
For the compound `N#Cc1cc2[nH]c(Cn3nc(CC(=O)O)c(=O)c4ccccc43)nc2cc1OCC1CC1` [Compound 108, 2-[1-[[6-cyano-5-(cyclopropylmethoxy)-1H-benzimidazol-2-yl]methyl]-4-oxo-cinnolin-3-yl]acetic acid], the EC50 in assay [1] worked out at 2.94 nM; in assay [2], 3080 nM; in assay [3], 19800 nM; at S1PR2 it was 9.21 nM; in the assay with HFL-1 cells [4] it was 0.00154 µM; in the assay with HFL-1 cells [5], 0.00589 µM.
In the case of `O=C(Cn1nc(Cc2nc3cc(Cl)c(OC(F)(F)F)cc3[nH]2)c2c(c1=O)CCCC2)N[C@H]1CCC[C@@H]1O` [Compound 146, 2-[4-[[5-chloro-6-(trifluoromethoxy)-1H-benzimidazol-2-yl]methyl]-1-oxo-5,6,7,8-tetrahydrophthalazin-2-yl]-N-[(1S,2S)-2-hydroxycyclopentyl]acetamide], the EC50 in assay [1] was 15.3 nM; in assay [2], at least 19900 nM; in assay [3] it was 6640 nM; at S1PR2, 23 nM; with HFL-1 cells [4], 0.0295 µM; in the assay with HFL-1 cells [5], 0.28 µM.
`O=C(O)C1(n2nc(Cn3cc4cc(OCC5CC5)c(Cl)cc4n3)c3ccccc3c2=O)CC1` [Compound 95, 1-[4-[[6-chloro-5-(cyclopropylmethoxy)indazol-2-yl]methyl]-1-oxo-phthalazin-2-yl]cyclopropanecarboxylic acid]: the EC50 was 19.4 nM in assay [1]; at least 19800 nM in assay [2]; 19800 nM in assay [3]; 208 nM on S1PR2; 0.0534 µM in the assay on HFL-1 cells [4]; 1.83 µM in the assay on HFL-1 cells [5].
With `CC1(C)CCN(C(=O)Cn2nc(Cc3nc4cc(OCC(F)F)c(C#N)cc4[nH]3)c3ccccc3c2=O)CC1` [Compound 234, 6-(2,2-difluoroethoxy)-2-[[3-[2-(4,4-dimethyl-1-piperidyl)-2-oxo-ethyl]-4-oxo-phthalazin-1-yl]methyl]-3H-benzimidazole-5-carbonitrile], the EC50 in assay [1] was 13 nM; in assay [2], at least 19800 nM; in assay [3], 19800 nM; on S1PR2 it was 270 nM; in the assay on HFL-1 cells [4] it was 0.0342 µM; in the assay on HFL-1 cells [5], 0.378 µM.
For the compound `N#Cc1cc2[nH]c(Cc3nn(CC(=O)N4CCC(O)(C(F)(F)F)C4)c(=O)c4ccccc34)nc2cc1OCC(F)F` (stereo not drawn) [Compound 216, 6-(2,2-difluoroethoxy)-2-[[3-[2-[3-hydroxy-3-(trifluoromethyl)pyrrolidin-1-yl]-2-oxo-ethyl]-4-oxo-phthalazin-1-yl]methyl]-3H-benzimidazole-5-carbonitrile], the EC50 was 13 nM in assay [1]; at least 19800 nM in assay [2]; 19800 nM in assay [3]; 44.7 nM at S1PR2; 0.0122 µM in the assay with HFL-1 cells [4]; 0.016 µM in the assay with HFL-1 cells [5].
As for `CS(=O)(=O)NC(=O)Cn1nc(Cn2cc3cc(OCC4CC4)c(Cl)cc3n2)c2ccccc2c1=O` [Compound 243, 2-[4-[[6-chloro-5-(cyclopropylmethoxy)indazol-2-yl]methyl]-1-oxo-phthalazin-2-yl]-N-methylsulfonyl-acetamide], the EC50 was 9 nM in assay [1]; at least 19800 nM in assay [2]; 19800 nM in assay [3]; 400 nM on S1PR2; 0.764 µM in the assay on HFL-1 cells [4]; 2.58 µM in the assay with HFL-1 cells [5].

One may read the EC50 as the concentration that produces a half-maximal response.
